Assay results from patent US12084403B2, “Linkers for antibody drug conjugates” (THE BOARD OF REGENTS OF THE UNIVERSITY OF TEXAS SYSTEM, priority 2017, dated 2024).
Starred links: 1 amine or outer side, 2 acyl side, 3 side chain; linkers in the order of their positions; H or OH if unused. Non-standard residues stand in square brackets, D forms with d. Residues, ends and D or L forms follow the SMILES beside them. *: point of attachment. EDDnp = O=[N+]([O-])c1ccc(NCCN*)c([N+](=O)[O-])c1; PABC = O=C(OCc1ccc(N[*:1])cc1)[*:2]; X1 = [N-]=[N+]=NCCOCCOCCOCC(=O)*; Cit = NC(=O)NCCC[C@H](N)C(=O)O; AEEEA = NCCOCCOCCOCC(=O)O

Experiments:
[1] = Plasma stability test using pyrene probes, BALB/c mouse plasma; format: in vitro ADME; conditions: undiluted BALB/c mouse plasma, 37° C., HPLC
Description: To test this hypothesis, a panel of peptide probes containing a various amino acid at the P3 position were evaluated for plasma stability at the small-molecule level (FIG. 13B). VCit- and tripeptide probes 12a-f were first synthesized by standard solid- and liquid-phase peptide synthesis and following carbamate formation. These model probes consisted of a XVCit-PABC unit where X is none (12a), serine (12b), glutamic acid (12c), aspartic acid (12d), lysine (12e), or hydroxyacetylglycine (12f). It was assumed that serine and hydroxyacetylglycine would serve as a mimic of the hydroxy-functionalized tripeptide ADC linker with increased mouse plasma stability reported by Dorywalska et al (Dorywalska et al., 2016). In particular, the 2-hydroxyacetamide group within probe 12f is the modifier that provided the greatest stability in their report. These linkers were covalently linked to 1-pyrenemethylamine, a surrogate of hydrophobic payloads with distinct UV absorbance at 341 nm (van Geel et al., 2015). Subsequently, probes 12a-f were incubated in undiluted BALB/c plasma at 37° C. and the amount of each probe was monitored by HPLC (FIG. 13C). […] Taking into account that all probes tested were stable in human plasma and no significant degradation was observed after 2 days (FIG. 14A), the accelerated degradation observed in KVCit probe 12e may indicate that a basic side chain at the P3 position provides an additional interaction with Ces1c leading to fast bond cleavage. […] Thus, the stabilizing effect of a neutral carbonyl group at the P3 position was not as significant as that of a negatively charged carboxylic acid side chain.
Plasma stability test using pyrene probes. Each test compound (10 mM in DMSO, 2 μL) was mixed with 1 μL of 1-pyrenemethylamine (10 mM in DMSO, as an internal standard) and incubated at 37° C. for 10 min. Pooled healthy human plasma or BALB/c mouse plasma (197 μL, Innovative Research) was added to the mixture, followed by incubation at 37° C. Aliquots (10 μL) were collected at each time point (0, 1, 6, 24, 48, and 96 h) and 40 μL of cold acetonitrile containing 1% formic acid was added to precipitate proteins. Supernatant of each sample was obtained and analyzed for quantification by analytical HPLC as described above. All assays were performed at least three times in technical duplicate, and data shown are representative of the replicates.

human cathepsin B = human cathepsin B (Homo sapiens, UniProt P07858); assay: Cathepsin B-mediated cleavage of linear and branched probes in FRET assay; format: biochemical; conditions: for Slope (RFU/sec): quencher (EdDnp) release rate, linear regression, triplicate; for release of EdDnp in the presence of human cathepsin B: result in words
Description: FIG. 2. Quencher release rate determination in Förster resonance energy transfer (FRET) assay. Each slope reflecting drug (quencher) release rate was calculated by linear regression using Graph Pad Prism 7 software. […] All assays were performed in triplicate and error bars represent SEM.
These model linker units consisted of cathepsin B-cleavable valine-citrulline (Val-Cit) with or without polyethyleneglycol (PEG) spacers. This dipeptide sequence has been used in many successful ADCs including the FDA-approved ADC Adcetris® (Katz et al., 2011). The sequence is stable in circulation but in lysosomes undergoes cathepsin B-mediated cleavage, resulting in intracellular release of payload (Dubowchik et al., 2002). Tryptophan and 2,4-dinitrophenylethylenediamine (EdDnp) were installed as a fluorophore/quencher(s) pair, which is commonly used in the Förster resonance energy transfer (FRET) assay. The release of EdDnp from each synthetic model linker unit in the presence of human cathepsin B (Table 1 and Scheme 3) was assessed. […] Without wishing to be bound by any theory, it is surmised that the structural congestion of branched probe 3 due to the lack of PEG spacers prevents cathepsin B accessing Val-Cit moieties.

Human liver cathepsin B = target: T1, Human liver cathepsin B (Homo sapiens, UniProt P07858); assay: Cathepsin B-mediated cleavage assay using pyrene probes; format: biochemical; conditions: 37° C., result in words
T1 construct: Human liver cathepsin B (20 ng/μL, 100 μL, EMD Millipore); purchased EMD Millipore; host or cells: human liver (tissue-derived, as the name says)
Description: Next, all probes were tested for responsiveness to human cathepsin B-mediated cleavage (FIG. 14B).
Cathepsin B-mediated cleavage assay using pyrene probes. Each test compound (10 mM in DMSO, 2 μL) was mixed with 97 μL of MES buffer (25 mM MES-Na, 1 mM DTT, pH 5.0) and 1 μL of 1-pyrenemethylamine (10 mM in DMSO, as an internal standard). The mixture was incubated at 37° C. for 10 min. Human liver cathepsin B (20 ng/μL, 100 μL, EMD Millipore) in MES buffer was added to the mixture, followed by incubation at 37° C. Aliquots (10 μL) were collected at each time point (0, 0.5, 1, 3, 24, and 48 h). Cold acetonitrile containing 1% formic acid (40 μL) was added to precipitate proteins. Precipitated proteins were separated by centrifugation (15,000 g, 4° C., 30 min) and supernatant of each sample was analyzed for quantification by analytical HPLC (UV absorption at 342 nm). The amount of each probe was normalized to the peak area of the internal standard. All assays were performed at least three times in technical duplicate, and data shown are representative of the replicates.

HOCH2CO-Gly-Val-Cit-PABC-Sar-pyrene [probe 12f]
t1/2 [1]: 5.0 h

Ac-Val-Cit-PABC-Sar-pyrene [probe 12a]
t1/2 [1]: 2.3 h

CC(=O)N[C@@H](Cc1c[nH]c2ccccc12)C(=O)N[C@@H](CCCCn1cc(CCC(=O)N[C@H](C(=O)N[C@@H](CCCNC(N)=O)C(=O)Nc2ccc(COC(=O)NCCNc3ccc([N+](=O)[O-])cc3[N+](=O)[O-])cc2)C(C)C)nn1)C(=O)N[C@H](C(=O)N[C@@H](CCCNC(N)=O)C(=O)Nc1ccc(COC(=O)NCCNc2ccc([N+](=O)[O-])cc2[N+](=O)[O-])cc1)C(C)C [probe 3]
Slope (RFU/sec) (human cathepsin B): 0.03 ± 0.06 RFU/sec | release of EdDnp in the presence of human cathepsin B (human cathepsin B): marginal release of EdDnp

Ac-Lys-Val-Cit-PABC-Sar-pyrene [probe 12e]
t1/2 [1]: 0.9 h

Ac-Asp-Val-Cit-PABC-Sar-pyrene [probe 12d]
t1/2 [1]: 14.0 h

Ac-Glu-Val-Cit-PABC-Sar-pyrene [probe 12c]
t1/2 [1]: 19.1 h

CC(=O)N[C@@H](Cc1c[nH]c2ccccc12)C(=O)N[C@@H](CCCCNC(=O)COCCOCCOCCN=[N+]=[N-])C(=O)NCCOCCOCCOCC(=O)N[C@H](C(=O)N[C@@H](CCCNC(N)=O)C(=O)Nc1ccc(COC(=O)NCCNc2ccc([N+](=O)[O-])cc2[N+](=O)[O-])cc1)C(C)C [probe 2, Ac-Trp-Lys(-PEG3-N3)-PEG3-Val-Cit-PABC-EdDnp] (Ac-WK(X1)[AEEEA]V[Cit][PABC]-EDDnp)
Slope (RFU/sec) (human cathepsin B): 1.81 ± 0.07 RFU/sec | release of EdDnp in the presence of human cathepsin B (human cathepsin B): released EdDnp more efficiently than Linear PEG (−) 1

CC(=O)N[C@@H](Cc1c[nH]c2ccccc12)C(=O)N[C@@H](CCCCNC(=O)COCCOCCOCCn1cc(CCC(=O)N[C@H](C(=O)N[C@@H](CCCNC(N)=O)C(=O)Nc2ccc(COC(=O)NCCNc3ccc([N+](=O)[O-])cc3[N+](=O)[O-])cc2)C(C)C)nn1)C(=O)NCCOCCOCCOCC(=O)N[C@H](C(=O)N[C@@H](CCCNC(N)=O)C(=O)Nc1ccc(COC(=O)NCCNc2ccc([N+](=O)[O-])cc2[N+](=O)[O-])cc1)C(C)C [probe 4]
Slope (RFU/sec) (human cathepsin B): 1.56 ± 0.05 RFU/sec | release of EdDnp in the presence of human cathepsin B (human cathepsin B): comparable to that of linear PEG (+) probe 2

Ac-Ser-Val-Cit-PABC-Sar-pyrene [probe 12b]
t1/2 [1]: 3.1 h | human cathepsin B-mediated cleavage rate (Human liver cathepsin B): comparable with that of VCit probe 12a
